Values after ≈ are worked out from the molar mass of the structure shown. Active and inactive are the calls of the source. The calls are words filed in the database; no cut-off is given here.
How the values were obtained:
LNCaP [1] = experiment: Induction of apoptosis in human LNCaP cells assessed as procaspase 3 cleavage at 12.5 ug/ml by immunoblot; type: functional, cell-based; settings: TDE = time-dependent effect
LNCaP [2] = experiment: Induction of apoptosis in human LNCaP cells assessed as procaspase 3 cleavage by immunoblot; type: functional, cell-based
LNCaP [3] = experiment: Reduction of NF-kappaB binding to cyclin D promoter in human LNCaP cells by electrophoretic mobility shift assay; type: cell-based
LNCaP [4] = experiment: Induction of procaspase 3 expression in human LNCaP cells at 6.25 ug/ml after 48 hrs by immunoblot; type: functional, cell-based
[5] = target: Transcription factor Jun (Homo sapiens) (UniProt P05412); experiment: Reduction of AP1 binding to cyclin D promoter in human LNCaP cells by electrophoretic mobility shift assay; type: cell-based
LNCaP [6] = experiment: Effect on cell morphology in human LNCaP cells assessed as loss of cell surface structure at => 12.5 ug/mL; type: functional
LNCaP [7] = experiment: Induction of apoptosis in human LNCaP cells assessed as subG1 phase accumulation at > 6.25 ug/ml after 4 days; type: functional, cell-based
LNCaP [8] = experiment: Cytotoxicity against human LNCaP cells after 48 hrs by MTT assay; type: functional, cell-based
SW-620 = experiment: Cytotoxicity against human SW620 cells after 48 hrs by MTT assay; type: functional, cell-based; settings: SW-620, 48 h
L929 = experiment: Cytotoxicity against mouse L929 cells after 48 hrs by MTT assay; type: cell-based; settings: L929, 48 h
LNCaP [9] = experiment: Cell cycle arrest in human LNCaP cells assessed as reduction of G1 phase at > 6.25 ug/ml after 4 days; type: functional, cell-based
LNCaP [10] = experiment: Cell cycle arrest in human LNCaP cells assessed as accumulation in G1 phase at 6.25 ug/ml after 4 days; type: functional
LNCaP [11] = experiment: Apoptotic activity in human LNCaP cells assessed as induction of FasL expression after 12 hrs; type: functional, cell-based
LNCaP [12] = experiment: Induction of procaspase 3 expression in human LNCaP cells at 50 ug/ml after 48 hrs by immunoblot; type: functional, cell-based
LNCaP [13] = experiment: Induction of apoptosis in human LNCaP cells assessed as procaspase 3 cleavage at 50 ug/ml by immunoblot; type: functional, cell-based; settings: TDE = time-dependent effect
LNCaP [14] = experiment: Decrease in mitochondrial membrane potential in human LNCaP cells at 50 ug/ml after 18 hrs; type: functional, cell-based
LNCaP [15] = experiment: Decrease of PCNA expression in human LNCaP cells after 24 hrs by immunoblotting analysis; type: functional, cell-based
LNCaP [16] = experiment: Decrease in mitochondrial membrane potential in human LNCaP cells at 6.25 ug/ml after 18 hrs; type: functional
LNCaP [17] = experiment: Induction of apoptosis in human LNCaP cells assessed as procaspase 8 cleavage by immunoblot; type: functional, cell-based
LNCaP [18] = experiment: Increase in intracellular ROS generation in human LNCaP cells at 6.25 ug/ml after 30 mins; type: functional
LNCaP [19] = experiment: Apoptotic activity in human LNCaP cells assessed as induction of FasL expression at 12.5 ug/ml after 6 hrs by immunoblot; type: functional, cell-based
LNCaP [20] = experiment: Increase in p21 mRNA expression in human LNCaP cells at >12.5 ug/mL after 24 hrs by RT-PCR; type: functional, cell-based
LNCaP [21] = experiment: Induction of apoptosis in human LNCaP cells assessed as procaspase 8 cleavage at 50 ug/ml by immunoblot; type: functional, cell-based; settings: TDE = time-dependent effect
LNCaP [22] = experiment: Cell cycle arrest in human LNCaP cells assessed as accumulation in S phase at 6.25 ug/ml after 4 days; type: functional
LNCaP [23] = experiment: Increase in intracellular ROS generation in human LNCaP cells at 50 ug/ml after 30 mins; type: functional
LNCaP [24] = experiment: Decrease of cyclin D expression in human LNCaP cells after 24 hrs by immunoblotting analysis; type: functional, cell-based
LNCaP [25] = experiment: Apoptotic activity in human LNCaP cells assessed as induction of Fas expression at 12.5 ug/ml after 24 hrs by immunoblot; type: functional, cell-based
LNCaP [26] = experiment: Induction of procaspase 3 expression in human LNCaP cells at 25 ug/ml after 48 hrs by immunoblot; type: functional, cell-based
LNCaP [27] = experiment: Apoptotic activity in human LNCaP cells assessed as induction of p21 expression at 12.5 ug/ml after 12 hrs by immunoblot; type: functional, cell-based
LNCaP [28] = experiment: Induction of apoptosis in human LNCaP cells assessed as procaspase 8 cleavage at 12.5 ug/ml by immunoblot; type: functional, cell-based; settings: TDE = time-dependent effect

Sequence of Transcription factor Jun (Homo sapiens) (P05412 whole entry): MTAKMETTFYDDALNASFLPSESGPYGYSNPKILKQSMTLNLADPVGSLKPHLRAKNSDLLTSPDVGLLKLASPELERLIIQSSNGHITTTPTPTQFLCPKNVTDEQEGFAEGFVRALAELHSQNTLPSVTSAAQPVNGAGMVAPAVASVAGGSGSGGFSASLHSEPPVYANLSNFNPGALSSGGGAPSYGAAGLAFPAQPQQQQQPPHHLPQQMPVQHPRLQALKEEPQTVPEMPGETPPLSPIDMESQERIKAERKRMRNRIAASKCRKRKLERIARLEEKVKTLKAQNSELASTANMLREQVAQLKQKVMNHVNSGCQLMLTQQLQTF

O=C1c2c(O)cc(O)cc2O[C@H](c2ccc(O)cc2)[C@@H]1[C@@H]1C(=O)c2c(O)cc(O)cc2O[C@@H]1c1ccc(O)cc1 [NEOCHAMAEJASMIN A]
Activity (LNCaP [1]): tde
Activity (LNCaP [2]): Dose-dependent effect
Activity (LNCaP [3]): Active
Activity (LNCaP [4]): Active
Activity [5]: Active
Activity (LNCaP [6]): >=12.5 ug ml-1
Activity (LNCaP [7]): Active
IC50 (LNCaP [8]): 12.5 µg/mL (≈ 23 µM)
IC50 (SW-620): 25.1 µg/mL (≈ 46.3 µM)
IC50 (L929): 90 µg/mL (≈ 166 µM)
Activity (LNCaP [9]): Dose-dependent effect
Activity (LNCaP [10]): 75%
Activity (LNCaP [11]): Dose-dependent effect
Activity (LNCaP [12]): Active
Activity (LNCaP [13]): tde
Activity (LNCaP [14]): Active
Activity (LNCaP [15]): Dose-dependent effect
fold change (FC) (LNCaP [16]): 1.6
Activity (LNCaP [17]): Dose-dependent effect
fold change (FC) (LNCaP [18]): 1.5
Activity (LNCaP [19]): Active
Activity (LNCaP [20]): Active
Activity (LNCaP [21]): tde
Activity (LNCaP [22]): <10%
fold change (FC) (LNCaP [23]): 3.5
Activity (LNCaP [24]): Dose-dependent effect
Activity (LNCaP [25]): Active
Activity (LNCaP [26]): Active
Activity (LNCaP [27]): Active
Activity (LNCaP [28]): tde
